Experimental data from US20200190202A1, “Reprogramming of CD8 T Cells with CXCL12 Signaling Inhibitors” (priority 2017, published 2020).
Like-named read-outs stand apart in the source and are kept apart here.

Key:
[1] = tested on: T cells in spleens, lymph nodes and tumors of AE17 tumor-bearing mice; assay: Immune profiling by flow cytometry, AE17 tumor-bearing mice; assay type: in vivo, mouse; settings: for proportion of CD8+ T cells in total live cells: compared to saline control
ovarian cancer = settings: monotherapy in ovarian tumor-bearing mice; cited from earlier work
[2] = tested on: T cells in spleens and tumors of 40 L tumor-bearing mice; assay: Immune profiling by flow cytometry, 40 L tumor-bearing mice; assay type: in vivo, mouse; settings: for proportion of CD8+ T cells in total live cells: compared to saline control
[3] = tested on: CD8+ T cells of 40 L tumor-bearing mice; assay: Ex-vivo restimulation with recombinant mesothelin and intracellular IFN-γ detection, 40 L mice; assay type: in vivo, mouse; settings: splenic CD8+ T cells; 40 L model; compared to saline
40 L mouse mesothelioma = assay: Intraperitoneal malignant mesothelioma model, tumor growth and survival, 40 L; assay type: in vivo; settings: 40 L model; compared to saline control
[4] = tested on: GFP-Foxp3 expressing CD4+ splenocytes (Treg cells); settings: AMD3100 5 μg/ml, 24 hours
AE17 mouse mesothelioma = assay: Intraperitoneal malignant mesothelioma model, tumor growth and survival, AE17; assay type: in vivo; settings: compared to saline control
[5] = 0.01-0.02 mg/kg subcutaneously twice daily for 6 months; cited from earlier work
[6] = tested on: CD8+ T cells of AE17 tumor-bearing mice; assay: Ex-vivo restimulation with recombinant mesothelin and intracellular IFN-γ detection, AE17 mice; assay type: in vivo, mouse; settings: AE17 model, compared to saline
[7] = lymph nodes, AE17 model, compared to saline
[8] = tumors, AE17 model, compared to saline
[9] = tumors, 40 L model, compared to saline

c1cc(CN2CCCNCCNCCCNCC2)ccc1CN1CCCNCCNCCCNCC1 [AMD3100, plerixafor]
IL-2+ CD40L+ cells among the Foxp3+ CD25− Treg population ([1]; lymph nodes of AE17 mice): significantly more | ratio of CD25− cells to CD25+ cells within the Foxp3+ population ([1]; lymph nodes, AE17 model): significantly increased | cell ratio of CD8+ T cells to Treg cells [1, 7]: significantly increased | proportion of PD-1-expressing CD8+ T cells [1, 7]: significantly fewer | proportion of CD8+ T cells in total live cells ([1]; lymph nodes, AE17 model): did not increase | Treg in the lymph nodes ([1]; lymph nodes, AE17 tumor-bearing mice): generally reduced | proportion of PD-1-expressing CD8+ T cells ([1]; spleens, AE17 model, compared to saline): significantly fewer | proportion of CD8+ T cells in total live cells ([1]; spleens, AE17 model): did not increase | proportion of PD-1-expressing CD8+ T cells [1, 8]: significantly fewer | proportions of Treg [1, 8]: significantly decreased | ratio of CD8+ T cells to Treg [1, 8]: increased | proportion of CD8+ T cells in total live cells ([1]; tumors, AE17 model): did not increase | intratumoral Treg cells (ovarian cancer): selective reduction | survival (ovarian cancer): survival advantage | proportion of PD-1-expressing CD8+ T cells ([2]; spleens, 40 L model, compared to saline): significantly fewer | proportion of CD8+ T cells in total live cells ([2]; spleens, 40 L model): did not increase | proportions of Treg cells ([2]; spleens, 40 L tumor-bearing mice): did not alter | IL-2+ CD40L+ cells among the Foxp3+ CD25− Treg population ([2]; tumors of 40 L mice): significantly more | ratio of CD25− cells to CD25+ cells within the Foxp3+ population ([2]; tumors of 40 L mice): significantly increased | proportion of PD-1-expressing CD8+ T cells [2, 9]: significantly fewer | proportions of Treg [2, 9]: significantly decreased | ratio of CD8+ T cells to Treg [2, 9]: increased | proportion of CD8+ T cells in total live cells ([2]; tumors, 40 L model): did not increase | mesothelin-specific IFN-γ expression in CD8+ T cells [3]: did not enhance | animal survival (40 L mouse mesothelioma): only modest benefit | conversion of Foxp3+ CD25− Treg into IL-2+ CD40L+ cells ([4]; anti-CD3/CD28 antibodies 1 μg/ml, P=0.0015): converted more | ratio of the proportion of CD25− cells to CD25+ cells in the Foxp3+ CD4+ population ([4]; anti-CD3/CD28 antibodies 1 μg/ml, P=0.0017): significantly increased | ratio of the proportion of CD25− cells to CD25+ cells in the Foxp3+ CD4+ population ([4]; no anti-CD3/CD28 stimulation): did not change | animal survival (AE17 mouse mesothelioma): only modest benefit | safety of long-term, low-dose treatment [5]: safety | mesothelin-specific IFN-γ expression in CD8+ T cells ([6]; lymph node CD8+ T cells): did not enhance | mesothelin-specific IFN-γ expression in CD8+ T cells ([6]; splenic CD8+ T cells): did not enhance
